Values quoted from earlier work, collected in US9526701B2, “Sustained drug release and improved product stability using non-covalent particle coating methods” (priority 2011, dated 2016).

Details: for half life in the blood: following administration; for bioavailability: oral administration

| half life in the blood | bioavailability | SMILES |
| --- | --- | --- |
| greater than 7 days | 45-65% | N[C@@H](Cc1cc(I)c(Oc2cc(I)c(O)c(I)c2)c(I)c1)C(=O)O [Example T4, 3,5,3′,5′-tetraiodo-L-thyronine] |
| 20 to 30 h | greater than 95% | N[C@@H](Cc1cc(I)c(Oc2ccc(O)c(I)c2)c(I)c1)C(=O)O [Example T3, 3,5,3′-triiodo-L-thyronine] |
